The text below walks through data of the Biogen ADME set (Fang et al. 2023).

The conditions of this data set: for aqueous solubility: pH 6.8.

A word on the aqueous solubility: it is the dissolved amount per volume that the medium holds.

Each structure is given as a SMILES string. Values after ≈ are worked out from the molar mass of the structure shown.

In the case of `O=C(NC[C@]1(O)CCN(Cc2cscn2)C[C@H]1O)c1c[nH]cn1`, the intrinsic clearance, human liver microsomes is at most 4.74 mL/min/kg and the intrinsic clearance, rat liver microsomes worked out at 42.6 mL/min/kg.

With `Cc1ccc(NC(=O)c2c([O-])n(-c3ccc(C)cc3)n[n+]2Cc2ccccc2)cc1`, the MDR1-MDCK efflux ratio stood at 1.02 and the aqueous solubility came to 0.21 µg/mL (≈ 0.527 µM).

As to `CC1(C)CN(C(=O)c2cncc(Br)c2)CCO1`, the MDR1-MDCK efflux ratio came to 0.783; the intrinsic clearance, human liver microsomes was at most 4.74 mL/min/kg; the intrinsic clearance, rat liver microsomes was at most 10.7 mL/min/kg; the aqueous solubility was 83.3 µg/mL (≈ 278 µM).

Consider `Cc1cccc2cc(C(=O)NCCCn3nnc4ccccc43)n(C)c12`, for which the MDR1-MDCK efflux ratio is 0.886; the intrinsic clearance, human liver microsomes worked out at 325 mL/min/kg; the intrinsic clearance, rat liver microsomes was found to be 1410 mL/min/kg.

As to `Cc1nc(NCc2scnc2C)n(C)n1`, the MDR1-MDCK efflux ratio was 4.21; the intrinsic clearance, human liver microsomes is at most 4.74 mL/min/kg; the intrinsic clearance, rat liver microsomes was at most 10.7 mL/min/kg; the aqueous solubility stood at 27.7 µg/mL (≈ 124 µM).

On to `COc1ccc(-c2cnn3c(N)c(-c4ccccc4)cnc23)cc1OC`, for which the MDR1-MDCK efflux ratio came to 0.459 and the aqueous solubility worked out at 0.19 µg/mL (≈ 0.549 µM).

Consider `O=C(CN1CCCC(c2cncc(-c3cccc(Cl)c3)n2)C1)N1CCCC1` (centres undefined), for which the MDR1-MDCK efflux ratio worked out at 1.73; the intrinsic clearance, human liver microsomes came to 86.6 mL/min/kg; the intrinsic clearance, rat liver microsomes was found to be 1080 mL/min/kg; the aqueous solubility turned out to be 65.8 µg/mL (≈ 171 µM).

In the case of `O=C(CN1CCC(n2c(=O)[nH]c3ccccc32)CC1)N1CCc2ccccc21`, the MDR1-MDCK efflux ratio came to 51; the intrinsic clearance, human liver microsomes amounted to 10.4 mL/min/kg; the intrinsic clearance, rat liver microsomes is 393 mL/min/kg; the aqueous solubility was found to be 21.9 µg/mL (≈ 58 µM).

Consider `Nc1ccc(Nc2ncc3cnn(C4CCCCCC4)c3n2)cn1`, for which the intrinsic clearance, human liver microsomes turned out to be 82.2 mL/min/kg and the intrinsic clearance, rat liver microsomes amounted to 216 mL/min/kg.

In the case of `Cn1ncnc1NCc1cc(F)cc(F)c1`, the MDR1-MDCK efflux ratio came out at 0.757; the intrinsic clearance, human liver microsomes was at most 4.74 mL/min/kg; the intrinsic clearance, rat liver microsomes was at most 10.7 mL/min/kg.

Take `CCNC(=O)N1CCc2nc3ccc(F)cn3c(=O)c2C1`: the MDR1-MDCK efflux ratio came to 10.3; the intrinsic clearance, human liver microsomes is at most 4.74 mL/min/kg; the intrinsic clearance, rat liver microsomes is at most 10.7 mL/min/kg; the aqueous solubility came to 57.7 µg/mL (≈ 199 µM).

Turning to `Cc1ccc(Cn2nc(C(=O)N[C@@H]3C(C)(C)[C@@H]4CC[C@@]3(C)C4)cc2-c2ccc(Cl)c(C)c2)cc1`, the MDR1-MDCK efflux ratio worked out at 0.636; the intrinsic clearance, human liver microsomes is 181 mL/min/kg; the intrinsic clearance, rat liver microsomes amounted to 676 mL/min/kg; the aqueous solubility stood at 1.29 µg/mL (≈ 2.71 µM).

As for `Cc1noc(C)c1CSC(=N)N1CCOCC1`, the MDR1-MDCK efflux ratio turned out to be 1.21; the intrinsic clearance, human liver microsomes was at most 4.74 mL/min/kg; the intrinsic clearance, rat liver microsomes is at most 10.7 mL/min/kg.

Turning to `CC(C)CCCNC(=O)c1[nH]ncc1Br`, the MDR1-MDCK efflux ratio amounted to 0.579; the intrinsic clearance, human liver microsomes amounted to 16.5 mL/min/kg; the intrinsic clearance, rat liver microsomes was found to be 742 mL/min/kg.

On to `Cc1cc(-n2ccnc2)ccc1C(=O)O`, for which the MDR1-MDCK efflux ratio was found to be 0.417; the intrinsic clearance, human liver microsomes is at most 4.74 mL/min/kg; the intrinsic clearance, rat liver microsomes is at most 10.7 mL/min/kg.

Take `CCCCc1nc2cc(/C=C/C(=O)NO)ccc2n1CCN(CC)CC`: the MDR1-MDCK efflux ratio came out at 28.3; the intrinsic clearance, human liver microsomes is at most 4.74 mL/min/kg; the intrinsic clearance, rat liver microsomes was 366 mL/min/kg; the aqueous solubility came out at 57.5 µg/mL (≈ 160 µM).

`CC(=O)N1c2ccccc2C[C@H]1C(=O)O`: the intrinsic clearance, human liver microsomes was at most 4.74 mL/min/kg; the intrinsic clearance, rat liver microsomes is at most 10.7 mL/min/kg; the aqueous solubility came to 33.6 µg/mL (≈ 164 µM).

As for `O=C(CN1CCSC1=O)Nc1ccccc1F`, the MDR1-MDCK efflux ratio was 0.739; the intrinsic clearance, human liver microsomes was at most 4.74 mL/min/kg; the intrinsic clearance, rat liver microsomes was at most 10.7 mL/min/kg; the aqueous solubility was 31.6 µg/mL (≈ 124 µM).

For `O=C(CSc1ccc2c(c1)OCCO2)NC1CCCC1`, the MDR1-MDCK efflux ratio turned out to be 0.73; the intrinsic clearance, human liver microsomes amounted to 83.8 mL/min/kg; the intrinsic clearance, rat liver microsomes amounted to 5820 mL/min/kg.

Consider `Cc1ccc(C2(O)CCN(Cc3cn(C)c4ccc(F)cc34)CC2)cc1`, for which the MDR1-MDCK efflux ratio stood at 0.869; the intrinsic clearance, human liver microsomes is 65.2 mL/min/kg; the intrinsic clearance, rat liver microsomes is 1790 mL/min/kg; the aqueous solubility was 49.7 µg/mL (≈ 141 µM).

`Cc1c(C(=O)NCc2cnc(N(C)C)n2C)sc2ccccc12`: the MDR1-MDCK efflux ratio came out at 5; the intrinsic clearance, human liver microsomes is 17.9 mL/min/kg; the intrinsic clearance, rat liver microsomes came out at 318 mL/min/kg; the aqueous solubility is 51 µg/mL (≈ 155 µM).

`Cc1nccc(NC(=O)c2ccc(Cl)nc2Cl)n1`: the MDR1-MDCK efflux ratio turned out to be 0.548; the intrinsic clearance, human liver microsomes came to 5.24 mL/min/kg; the intrinsic clearance, rat liver microsomes was 15.2 mL/min/kg.

For `Cc1cc(C)c2[nH]c(C(=O)N3CC[C@@](O)(CC(C)C)[C@@H](Oc4ccc(F)cc4)C3)c(C)c2c1`, the MDR1-MDCK efflux ratio was 4.89; the intrinsic clearance, human liver microsomes was 140 mL/min/kg; the intrinsic clearance, rat liver microsomes was 1910 mL/min/kg.

Turning to `O=C(NCCN1CCC(n2c(=O)[nH]c3cc(Cl)ccc32)CC1)c1ccc(F)cc1`, the intrinsic clearance, human liver microsomes was determined as 60.9 mL/min/kg and the intrinsic clearance, rat liver microsomes turned out to be 373 mL/min/kg.

Compound `Cc1ccc(C)c(NC(=O)c2cccc(-c3ncon3)c2)c1` came in with an intrinsic clearance, human liver microsomes of 41.7 mL/min/kg and an intrinsic clearance, rat liver microsomes of 164 mL/min/kg.

On to `Cc1nccn1-c1ccc(F)cc1CNC(=O)C(C)C`, for which the MDR1-MDCK efflux ratio was 22.2; the intrinsic clearance, human liver microsomes came to 8.38 mL/min/kg; the intrinsic clearance, rat liver microsomes is 57.2 mL/min/kg; the aqueous solubility turned out to be 59.4 µg/mL (≈ 216 µM).

Consider `CCC(=O)Nc1sc2c(c1C#N)CCC2`, for which the intrinsic clearance, human liver microsomes was found to be 156 mL/min/kg and the intrinsic clearance, rat liver microsomes was determined as 381 mL/min/kg.

With `COCc1ccccc1COC(=O)c1ccc(C)nc1`, the MDR1-MDCK efflux ratio is 0.608; the intrinsic clearance, human liver microsomes worked out at 444 mL/min/kg; the intrinsic clearance, rat liver microsomes was determined as 2220 mL/min/kg.

Take `COC(=O)N1CCCN(C(=O)c2ccc(-c3ccccc3Cl)o2)CC1`: the MDR1-MDCK efflux ratio is 0.661; the intrinsic clearance, human liver microsomes turned out to be 174 mL/min/kg; the intrinsic clearance, rat liver microsomes was determined as 4850 mL/min/kg; the aqueous solubility stood at 58.9 µg/mL (≈ 162 µM).

Compound `O=C(Nc1nc2ccccc2[nH]1)C1CCCO1` (centres undefined) displayed an aqueous solubility of 35.5 µg/mL (≈ 154 µM).

Turning to `Cn1ccc(CN2CCC(c3cnccn3)CC2)n1`, the MDR1-MDCK efflux ratio was 0.983; the intrinsic clearance, human liver microsomes was at most 4.74 mL/min/kg; the intrinsic clearance, rat liver microsomes stood at 26.8 mL/min/kg; the aqueous solubility amounted to 50 µg/mL (≈ 194 µM).

Regarding `CCOC(=O)c1cccnc1-c1cccc2ccnn12`, the MDR1-MDCK efflux ratio was 0.687; the intrinsic clearance, human liver microsomes was at most 4.74 mL/min/kg; the intrinsic clearance, rat liver microsomes is 80.1 mL/min/kg; the aqueous solubility was 45.8 µg/mL (≈ 171 µM).

For the compound `CCOc1ccc(Oc2ccc(OCc3cc(F)ccc3F)cc2)c(N)c1`, the intrinsic clearance, human liver microsomes is 8.79 mL/min/kg and the intrinsic clearance, rat liver microsomes was 104 mL/min/kg.

In the case of `CSCC[C@@H](CO)n1ccnc1-c1oc2ccccc2c1C`, the MDR1-MDCK efflux ratio was 3.51; the intrinsic clearance, human liver microsomes was 167 mL/min/kg; the intrinsic clearance, rat liver microsomes came out at 2000 mL/min/kg; the aqueous solubility came out at 73.2 µg/mL (≈ 231 µM).

`COCC(=O)Nc1ccc(C)c(NC(=O)[C@H](OC)c2ccccc2)c1`: the MDR1-MDCK efflux ratio turned out to be 2.8; the intrinsic clearance, human liver microsomes was found to be 85.2 mL/min/kg; the intrinsic clearance, rat liver microsomes is 44.9 mL/min/kg.

Compound `CN(Cc1cccc(C#N)c1)C(=O)CC(C)(C)C` yielded an aqueous solubility of 29.9 µg/mL (≈ 123 µM).

For the compound `CON(C)C(=O)c1cc2ccc(C(C)(C)C)cc2[nH]1`, the MDR1-MDCK efflux ratio was determined as 0.438; the intrinsic clearance, human liver microsomes is 55 mL/min/kg; the intrinsic clearance, rat liver microsomes was determined as 344 mL/min/kg; the aqueous solubility turned out to be 1.02 µg/mL (≈ 3.92 µM).

`Cc1cc(SCc2ccc(Cl)nc2)nc2ccccc12` returned an intrinsic clearance, human liver microsomes of 327 mL/min/kg and an intrinsic clearance, rat liver microsomes of 1380 mL/min/kg.

As to `C[C@H](NC(=O)CCC(F)(F)F)C(=O)N[C@@H]1C(=O)N(CCO)c2ncccc2-c2ccccc21`, the MDR1-MDCK efflux ratio was 24; the intrinsic clearance, human liver microsomes is at most 4.74 mL/min/kg; the intrinsic clearance, rat liver microsomes is 10.8 mL/min/kg.

In turn, `CC1=NC(Nc2nc(C)c3ccccc3n2)=NC(C)(C)C1` gave an aqueous solubility of 0.66 µg/mL (≈ 2.35 µM).

In the case of `Cc1ccc(=O)n(CCOc2cc(F)cc(Br)c2)n1`, the MDR1-MDCK efflux ratio turned out to be 0.596; the intrinsic clearance, human liver microsomes came to 140 mL/min/kg; the intrinsic clearance, rat liver microsomes came out at 901 mL/min/kg.

`O=C(C1CCCN(c2ccccn2)C1)N1CCc2ccccc2C1` (centres undefined) displayed an intrinsic clearance, human liver microsomes of 172 mL/min/kg; an intrinsic clearance, rat liver microsomes of 1520 mL/min/kg; an aqueous solubility of 49.2 µg/mL (≈ 153 µM).

Take `Cc1cc(C)nc(SCC(=O)N2c3ccccc3C(C)(c3ccccc3)CC2(C)C)n1` (centres undefined): the intrinsic clearance, human liver microsomes is 2360 mL/min/kg and the intrinsic clearance, rat liver microsomes came to 3130 mL/min/kg.

Turning to `CC(C)(C)c1nnnn1CC(=O)NC12CC3CC(CC(C3)C1)C2`, the MDR1-MDCK efflux ratio is 0.776; the intrinsic clearance, human liver microsomes was 57.4 mL/min/kg; the intrinsic clearance, rat liver microsomes came out at 518 mL/min/kg; the aqueous solubility amounted to 25.8 µg/mL (≈ 81.4 µM).

On to `CC(C)c1nc2c(n1C)CCN(C(=O)c1cccc(C(F)(F)F)c1F)C2`, for which the MDR1-MDCK efflux ratio turned out to be 8.01; the intrinsic clearance, human liver microsomes worked out at 32.7 mL/min/kg; the intrinsic clearance, rat liver microsomes was 238 mL/min/kg; the aqueous solubility is 60.8 µg/mL (≈ 165 µM).

`CN1C(=O)[C@@H](NC(=O)c2nnc(Cc3ccccc3)[nH]2)COc2ccccc21` registered an intrinsic clearance, human liver microsomes of at most 4.74 mL/min/kg; an intrinsic clearance, rat liver microsomes of 104 mL/min/kg; an aqueous solubility of 41.5 µg/mL (≈ 110 µM).

Regarding `CCn1c(-c2nonc2N)nc2cnc(Oc3cccc(NC(=O)c4ccc(OCCN5CCOCC5)cc4)c3)cc21`, the MDR1-MDCK efflux ratio turned out to be 7.8; the fraction unbound, human plasma stood at 0.00355; the fraction unbound, rat plasma is 0.00473; the intrinsic clearance, human liver microsomes was 101 mL/min/kg. Moreover, the intrinsic clearance, rat liver microsomes amounted to 232 mL/min/kg.

For the compound `CCc1cc(NCc2cccc(OCCOC)c2)ncn1`, the MDR1-MDCK efflux ratio stood at 0.827; the intrinsic clearance, human liver microsomes was determined as 9.28 mL/min/kg; the intrinsic clearance, rat liver microsomes stood at 148 mL/min/kg; the aqueous solubility is 49.1 µg/mL (≈ 171 µM).
